This note sets out measurements from ChEMBL document CHEMBL1201862, “PubChem BioAssay data set” (2004).

Common to all, as to type: functional
Assay [1] addresses Vascular endothelial growth factor receptor 2 (Homo sapiens, UniProt P35968).
The target of assay [2] is cAMP-dependent protein kinase catalytic subunit alpha (Homo sapiens, UniProt P17612).
Assay [3] addresses ALK tyrosine kinase receptor (Homo sapiens, UniProt Q9UM73).
The target of assay [4] is Ribosomal protein S6 kinase alpha-3 (Homo sapiens, UniProt P51812).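 Further: measured within a kinome-wide profiling panel.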
Sequence of Ribosomal protein S6 kinase alpha-3 (P51812 whole entry): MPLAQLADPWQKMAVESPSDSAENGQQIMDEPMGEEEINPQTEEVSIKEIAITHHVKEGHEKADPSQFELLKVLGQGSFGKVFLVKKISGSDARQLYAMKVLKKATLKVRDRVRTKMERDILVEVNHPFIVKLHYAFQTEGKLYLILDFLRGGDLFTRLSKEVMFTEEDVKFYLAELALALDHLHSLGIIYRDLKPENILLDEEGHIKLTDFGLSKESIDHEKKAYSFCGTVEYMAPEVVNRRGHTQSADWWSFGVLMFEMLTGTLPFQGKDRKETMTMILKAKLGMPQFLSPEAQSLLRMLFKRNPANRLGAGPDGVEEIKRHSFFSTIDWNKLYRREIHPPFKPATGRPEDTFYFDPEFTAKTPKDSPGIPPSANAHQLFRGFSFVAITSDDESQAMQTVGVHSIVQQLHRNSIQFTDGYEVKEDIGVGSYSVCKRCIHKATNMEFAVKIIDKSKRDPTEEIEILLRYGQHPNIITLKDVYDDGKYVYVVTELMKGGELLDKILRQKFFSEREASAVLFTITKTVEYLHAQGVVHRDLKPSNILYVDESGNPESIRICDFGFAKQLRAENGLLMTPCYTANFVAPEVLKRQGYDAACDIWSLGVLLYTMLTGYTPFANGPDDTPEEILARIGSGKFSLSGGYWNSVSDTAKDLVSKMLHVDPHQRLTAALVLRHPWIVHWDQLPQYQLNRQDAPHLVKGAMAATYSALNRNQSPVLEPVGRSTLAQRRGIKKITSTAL
The target in assay [5] is Tyrosine-protein kinase BTK (Homo sapiens, UniProt Q06187).
Sequence of Tyrosine-protein kinase BTK (Q06187 whole entry): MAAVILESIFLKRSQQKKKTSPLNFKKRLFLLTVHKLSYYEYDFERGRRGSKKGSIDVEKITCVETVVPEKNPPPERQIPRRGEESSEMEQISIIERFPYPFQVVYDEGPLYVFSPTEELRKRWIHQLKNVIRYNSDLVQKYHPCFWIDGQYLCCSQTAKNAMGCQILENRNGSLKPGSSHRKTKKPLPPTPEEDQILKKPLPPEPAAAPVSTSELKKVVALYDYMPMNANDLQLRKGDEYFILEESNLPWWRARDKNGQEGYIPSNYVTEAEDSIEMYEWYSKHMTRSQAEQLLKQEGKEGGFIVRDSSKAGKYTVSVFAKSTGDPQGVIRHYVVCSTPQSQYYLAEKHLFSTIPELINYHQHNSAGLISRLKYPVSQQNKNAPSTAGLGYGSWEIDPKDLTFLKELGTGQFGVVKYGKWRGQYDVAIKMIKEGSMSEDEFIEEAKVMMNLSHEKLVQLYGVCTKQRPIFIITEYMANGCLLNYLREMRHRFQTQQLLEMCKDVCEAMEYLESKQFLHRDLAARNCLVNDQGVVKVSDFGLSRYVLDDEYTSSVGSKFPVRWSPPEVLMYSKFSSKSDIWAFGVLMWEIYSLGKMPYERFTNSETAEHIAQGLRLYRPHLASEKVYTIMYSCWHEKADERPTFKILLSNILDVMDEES
In assay [6] the target is G protein-coupled receptor kinase 5 (Homo sapiens, UniProt P34947). The experiment in a line: Navigating the Kinome. Panel member name: GPRK5.
Sequence of G protein-coupled receptor kinase 5 (P34947 whole entry): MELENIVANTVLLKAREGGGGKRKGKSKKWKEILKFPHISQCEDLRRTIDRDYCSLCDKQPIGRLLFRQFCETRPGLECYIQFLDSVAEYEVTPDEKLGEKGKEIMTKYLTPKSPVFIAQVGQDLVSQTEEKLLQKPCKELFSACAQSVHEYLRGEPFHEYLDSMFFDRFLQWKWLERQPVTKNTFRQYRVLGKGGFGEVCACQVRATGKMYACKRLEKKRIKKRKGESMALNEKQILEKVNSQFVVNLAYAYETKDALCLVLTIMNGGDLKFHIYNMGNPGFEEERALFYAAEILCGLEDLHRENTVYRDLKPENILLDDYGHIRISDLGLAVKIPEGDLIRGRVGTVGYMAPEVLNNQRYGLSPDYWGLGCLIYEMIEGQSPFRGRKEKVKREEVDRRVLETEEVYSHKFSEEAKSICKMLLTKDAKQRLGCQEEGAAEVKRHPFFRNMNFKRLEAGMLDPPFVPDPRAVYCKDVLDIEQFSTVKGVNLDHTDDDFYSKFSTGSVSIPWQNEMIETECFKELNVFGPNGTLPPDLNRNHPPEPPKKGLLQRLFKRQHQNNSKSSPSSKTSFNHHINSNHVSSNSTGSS
The target of assay [7] is T1, Sentrin-specific protease 7 (Homo sapiens, UniProt Q9BQF6).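 Further: Luminescence-based dose-response confirmation of ultra-high-throughput screening hits, measuring inhibition of SENP7.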
T1 sequence (Q9BQF6 whole entry): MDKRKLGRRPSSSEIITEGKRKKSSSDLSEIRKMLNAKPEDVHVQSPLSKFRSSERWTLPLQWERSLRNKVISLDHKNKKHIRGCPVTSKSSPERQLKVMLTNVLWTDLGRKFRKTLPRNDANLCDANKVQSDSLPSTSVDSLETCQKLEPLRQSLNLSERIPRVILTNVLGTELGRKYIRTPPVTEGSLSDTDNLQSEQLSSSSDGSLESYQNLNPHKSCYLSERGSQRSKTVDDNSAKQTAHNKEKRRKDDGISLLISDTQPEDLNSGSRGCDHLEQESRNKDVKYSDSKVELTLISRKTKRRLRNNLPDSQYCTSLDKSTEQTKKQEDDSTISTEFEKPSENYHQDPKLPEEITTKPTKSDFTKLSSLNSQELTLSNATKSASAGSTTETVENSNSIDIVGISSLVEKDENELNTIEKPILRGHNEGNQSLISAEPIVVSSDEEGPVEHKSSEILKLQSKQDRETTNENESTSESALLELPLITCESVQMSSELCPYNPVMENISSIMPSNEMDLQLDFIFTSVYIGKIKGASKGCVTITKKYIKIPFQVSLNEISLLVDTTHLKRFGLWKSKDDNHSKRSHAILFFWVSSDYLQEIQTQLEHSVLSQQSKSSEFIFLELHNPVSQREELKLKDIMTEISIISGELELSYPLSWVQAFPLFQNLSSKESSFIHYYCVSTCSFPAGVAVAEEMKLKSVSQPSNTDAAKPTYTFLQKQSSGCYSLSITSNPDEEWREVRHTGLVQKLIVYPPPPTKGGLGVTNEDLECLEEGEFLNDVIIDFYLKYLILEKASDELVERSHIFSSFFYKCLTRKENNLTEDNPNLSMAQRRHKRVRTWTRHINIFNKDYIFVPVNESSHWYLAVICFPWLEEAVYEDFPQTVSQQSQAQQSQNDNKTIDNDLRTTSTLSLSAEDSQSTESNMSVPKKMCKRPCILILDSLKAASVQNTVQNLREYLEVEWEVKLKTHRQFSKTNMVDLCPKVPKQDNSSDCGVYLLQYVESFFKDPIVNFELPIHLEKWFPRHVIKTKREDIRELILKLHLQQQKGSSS

A further assay concerns the target T2, Caspase-3 (Homo sapiens, UniProt P42574).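 Further: Dose-response selectivity test against caspase-3 for candidate inhibitors of sentrin-specific proteases (SENPs).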
T2 sequence (P42574 whole entry): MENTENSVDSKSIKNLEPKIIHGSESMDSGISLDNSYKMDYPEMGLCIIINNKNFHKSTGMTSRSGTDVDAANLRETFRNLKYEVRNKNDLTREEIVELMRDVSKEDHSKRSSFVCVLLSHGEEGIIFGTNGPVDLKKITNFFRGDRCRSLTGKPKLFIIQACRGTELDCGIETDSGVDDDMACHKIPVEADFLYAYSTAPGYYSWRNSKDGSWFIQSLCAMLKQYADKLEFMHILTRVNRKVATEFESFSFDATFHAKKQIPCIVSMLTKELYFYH

In assay [8] the target is T3, Apoptotic protease-activating factor 1 (Homo sapiens, UniProt O14727).
T3 sequence (O14727 whole entry): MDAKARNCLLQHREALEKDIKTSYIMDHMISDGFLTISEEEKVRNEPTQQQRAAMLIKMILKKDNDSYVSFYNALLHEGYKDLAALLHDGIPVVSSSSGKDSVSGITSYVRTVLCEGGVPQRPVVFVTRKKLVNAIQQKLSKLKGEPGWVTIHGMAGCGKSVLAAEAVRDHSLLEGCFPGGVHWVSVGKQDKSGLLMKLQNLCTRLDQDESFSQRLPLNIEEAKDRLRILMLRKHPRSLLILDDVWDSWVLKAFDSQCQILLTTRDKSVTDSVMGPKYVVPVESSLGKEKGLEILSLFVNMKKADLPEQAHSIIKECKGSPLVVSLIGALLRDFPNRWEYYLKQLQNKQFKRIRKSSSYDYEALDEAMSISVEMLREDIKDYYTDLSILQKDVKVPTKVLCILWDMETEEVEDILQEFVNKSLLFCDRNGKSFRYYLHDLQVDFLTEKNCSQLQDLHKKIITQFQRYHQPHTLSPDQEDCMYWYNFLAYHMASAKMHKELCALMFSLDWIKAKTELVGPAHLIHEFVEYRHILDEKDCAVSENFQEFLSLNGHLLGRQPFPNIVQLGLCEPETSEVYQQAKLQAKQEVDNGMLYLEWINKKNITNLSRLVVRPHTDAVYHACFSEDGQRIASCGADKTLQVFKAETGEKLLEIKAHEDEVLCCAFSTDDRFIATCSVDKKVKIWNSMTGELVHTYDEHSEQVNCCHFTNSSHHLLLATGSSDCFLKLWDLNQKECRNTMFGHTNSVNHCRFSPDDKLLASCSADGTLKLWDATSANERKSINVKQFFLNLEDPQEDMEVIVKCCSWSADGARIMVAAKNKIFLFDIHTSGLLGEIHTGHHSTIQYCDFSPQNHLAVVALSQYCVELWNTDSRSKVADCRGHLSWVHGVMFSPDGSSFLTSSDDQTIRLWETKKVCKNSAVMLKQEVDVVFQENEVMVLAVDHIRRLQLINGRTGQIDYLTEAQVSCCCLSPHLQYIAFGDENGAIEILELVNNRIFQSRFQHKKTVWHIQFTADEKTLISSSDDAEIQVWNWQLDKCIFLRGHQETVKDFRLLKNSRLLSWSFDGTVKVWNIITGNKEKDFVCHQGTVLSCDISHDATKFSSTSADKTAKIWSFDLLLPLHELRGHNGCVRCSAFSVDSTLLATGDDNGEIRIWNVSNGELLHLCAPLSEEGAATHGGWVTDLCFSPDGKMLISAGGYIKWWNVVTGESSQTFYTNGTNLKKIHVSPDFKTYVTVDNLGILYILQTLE

The test system of another assay is INS1. Nature of the assay: INS-1E survival protection against cytokine death – cell-based, luminescence, retest, dose response (AID 449756).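 Further: cell death triggered by IL-1 beta plus TNF-alpha plus IFN-gamma mixture; protective hits raise ATP signal compared with cytokine alone wells.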 The conditions noted are these: Rattus norvegicus.

Activity calls are given as the source filed them.

Sequence of ALK tyrosine kinase receptor (Q9UM73 whole entry): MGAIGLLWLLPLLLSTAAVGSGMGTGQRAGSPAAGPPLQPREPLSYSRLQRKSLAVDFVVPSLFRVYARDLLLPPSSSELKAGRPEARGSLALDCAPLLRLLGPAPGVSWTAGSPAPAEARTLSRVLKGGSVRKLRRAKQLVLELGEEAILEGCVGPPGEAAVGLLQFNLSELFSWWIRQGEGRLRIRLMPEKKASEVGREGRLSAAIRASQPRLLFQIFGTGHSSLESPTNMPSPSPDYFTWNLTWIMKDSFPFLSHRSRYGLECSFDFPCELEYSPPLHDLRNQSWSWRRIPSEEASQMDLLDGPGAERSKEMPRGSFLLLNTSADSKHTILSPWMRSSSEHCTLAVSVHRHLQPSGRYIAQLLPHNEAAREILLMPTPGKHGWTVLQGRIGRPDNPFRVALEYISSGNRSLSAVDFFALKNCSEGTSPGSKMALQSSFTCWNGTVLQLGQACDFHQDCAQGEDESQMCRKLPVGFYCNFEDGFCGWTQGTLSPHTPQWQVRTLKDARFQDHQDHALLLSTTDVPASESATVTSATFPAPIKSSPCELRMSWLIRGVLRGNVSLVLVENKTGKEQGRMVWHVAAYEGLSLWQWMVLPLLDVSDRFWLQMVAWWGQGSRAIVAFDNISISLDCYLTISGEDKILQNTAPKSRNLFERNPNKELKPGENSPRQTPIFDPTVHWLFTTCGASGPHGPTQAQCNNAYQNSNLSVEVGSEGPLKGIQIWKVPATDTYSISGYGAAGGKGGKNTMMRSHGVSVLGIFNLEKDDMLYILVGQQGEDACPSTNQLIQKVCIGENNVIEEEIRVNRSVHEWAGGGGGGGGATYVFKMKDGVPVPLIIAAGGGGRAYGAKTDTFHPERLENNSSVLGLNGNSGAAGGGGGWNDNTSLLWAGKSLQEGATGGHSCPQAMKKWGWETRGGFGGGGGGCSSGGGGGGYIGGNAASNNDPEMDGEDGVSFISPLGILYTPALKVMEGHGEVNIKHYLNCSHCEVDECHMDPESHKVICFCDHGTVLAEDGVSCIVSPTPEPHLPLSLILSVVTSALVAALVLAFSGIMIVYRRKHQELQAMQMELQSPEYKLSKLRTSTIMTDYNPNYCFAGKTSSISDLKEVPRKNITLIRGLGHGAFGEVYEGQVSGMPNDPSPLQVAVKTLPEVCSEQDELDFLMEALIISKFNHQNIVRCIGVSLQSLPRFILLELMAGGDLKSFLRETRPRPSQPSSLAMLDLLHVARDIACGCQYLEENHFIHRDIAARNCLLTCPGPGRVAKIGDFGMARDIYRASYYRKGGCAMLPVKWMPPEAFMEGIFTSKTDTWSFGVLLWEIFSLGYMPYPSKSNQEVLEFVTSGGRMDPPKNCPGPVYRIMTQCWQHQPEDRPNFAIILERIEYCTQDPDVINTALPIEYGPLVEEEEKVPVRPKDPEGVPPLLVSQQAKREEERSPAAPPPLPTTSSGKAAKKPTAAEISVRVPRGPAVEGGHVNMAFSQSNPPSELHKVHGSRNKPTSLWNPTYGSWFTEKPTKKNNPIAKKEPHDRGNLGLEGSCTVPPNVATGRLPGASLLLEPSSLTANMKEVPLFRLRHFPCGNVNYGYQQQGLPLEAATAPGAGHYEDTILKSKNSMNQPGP
Sequence of Vascular endothelial growth factor receptor 2 (P35968 whole entry): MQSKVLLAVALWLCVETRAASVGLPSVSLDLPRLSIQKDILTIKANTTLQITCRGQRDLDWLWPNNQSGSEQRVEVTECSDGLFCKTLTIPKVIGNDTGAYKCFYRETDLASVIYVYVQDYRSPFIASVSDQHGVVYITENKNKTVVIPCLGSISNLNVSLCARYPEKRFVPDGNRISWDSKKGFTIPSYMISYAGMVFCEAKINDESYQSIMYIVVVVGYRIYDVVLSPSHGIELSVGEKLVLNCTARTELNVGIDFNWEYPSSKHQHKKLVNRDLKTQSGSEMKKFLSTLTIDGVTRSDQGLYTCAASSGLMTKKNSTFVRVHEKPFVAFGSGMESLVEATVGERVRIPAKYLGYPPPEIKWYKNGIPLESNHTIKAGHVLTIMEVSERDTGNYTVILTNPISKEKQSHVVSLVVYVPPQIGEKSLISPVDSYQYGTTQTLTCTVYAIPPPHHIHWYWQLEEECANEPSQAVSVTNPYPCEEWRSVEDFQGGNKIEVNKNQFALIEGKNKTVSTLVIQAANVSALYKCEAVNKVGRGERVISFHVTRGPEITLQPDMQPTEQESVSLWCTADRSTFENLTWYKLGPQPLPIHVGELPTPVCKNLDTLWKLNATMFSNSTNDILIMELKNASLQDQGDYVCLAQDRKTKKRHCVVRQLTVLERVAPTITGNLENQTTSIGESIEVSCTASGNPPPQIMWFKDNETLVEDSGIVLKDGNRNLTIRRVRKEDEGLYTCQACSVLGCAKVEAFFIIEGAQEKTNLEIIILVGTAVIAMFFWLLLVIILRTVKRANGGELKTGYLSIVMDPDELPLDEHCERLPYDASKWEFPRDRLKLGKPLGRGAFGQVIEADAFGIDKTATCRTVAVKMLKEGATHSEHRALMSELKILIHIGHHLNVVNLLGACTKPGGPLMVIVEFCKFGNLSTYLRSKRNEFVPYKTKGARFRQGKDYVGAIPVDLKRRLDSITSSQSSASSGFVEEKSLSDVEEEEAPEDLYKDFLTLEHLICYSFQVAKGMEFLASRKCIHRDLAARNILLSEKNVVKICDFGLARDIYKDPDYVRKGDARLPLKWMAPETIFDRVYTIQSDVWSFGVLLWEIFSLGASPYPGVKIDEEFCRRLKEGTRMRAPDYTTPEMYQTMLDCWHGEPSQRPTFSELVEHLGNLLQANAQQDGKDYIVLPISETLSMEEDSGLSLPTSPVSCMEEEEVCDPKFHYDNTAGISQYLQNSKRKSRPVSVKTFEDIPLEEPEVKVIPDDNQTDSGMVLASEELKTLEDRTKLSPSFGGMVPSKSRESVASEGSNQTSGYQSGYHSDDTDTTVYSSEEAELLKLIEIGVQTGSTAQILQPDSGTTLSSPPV

`Nc1c(-c2ccc(NC(=O)Nc3cccc(C(F)(F)F)c3)cc2)cnc2c(-c3ccc4c(c3)OCO4)cnn12`: the Ki was 0.0126 µM (active) in [1]; > 1.26 µM (inactive) in assay [2]; > 6.31 µM (inactive) in assay [3]; > 3.98 µM (inactive) in assay [4]; 0.316 µM (active) in [5]; > 3.98 µM (inactive) in assay [6].

As to `Nc1nnc2c(n1)CCCC2`, the IC50 in assay [7] is 10.2 µM (active); at Caspase-3 it was 14.3 µM (active); in assay [8], 7.19 µM (active).

In the case of `O=C(Nc1cc(-c2c[nH]c3ncccc23)cc(Cl)n1)c1ccccc1`, the Ki is > 2.51 µM (inactive) in assay [1]; > 2.51 µM (inactive) in assay [2]; > 6.31 µM (inactive) in [3]; > 3.98 µM (inactive) in assay [4]; > 6.31 µM (inactive) in assay [5]; > 3.98 µM (inactive) in assay [6].

Turning to `CNC[C@H](Cc1ccccc1)NC[C@@H](Cc1cccc2ccccc12)NCCc1ccc(C)cc1`, the AC50 in the assay on INS1 is 7.38 µM (active).

Take `O=C(N/N=C/c1c(O)ccc2ccccc12)c1[nH]ncc1Br`: the IC50 in assay [7] was 7.19 µM (active); at Caspase-3, 27.7 µM (active). Further, the AC50 with INS1 was 0.558 µM (active).

On to `O=C(Cc1ccccc1Cl)NC1(O)C(=O)c2ccccc2C1=O`, for which the IC50 in [8] was 12 µM (active).

As usually defined, the Ki is the dissociation constant of the complex between target and ligand, obtained from inhibition or displacement. What is called IC50 is the concentration at which inhibition is half-maximal. What is called AC50 is the concentration giving half of the maximal activity seen.
